The values below come from ChEMBL document CHEMBL4433260, “Oxadiazole scaffolds in anti-tuberculosis drug discovery” (Bioorg Med Chem Lett, 2019).

SMILES strings stand for the structures. pIC50: −log10 of the molar value. Values after ≈ are worked out from the molar mass of the structure shown. A value given as a limit tells only on which side of the number the result lay.

Assay [1] has as its system Mycobacterium tuberculosis. Description: Antimycobacterial activity against Mycobacterium tuberculosis H37Rv measured after 28 days by Lowensteine-Jensen method. It is filed as functional. The settings on record: 672 h.
Assay [2] deals with Mycobacterium tuberculosis. Kind of assay: Antimycobacterial activity against Mycobacterium tuberculosis H37Rv incubated for 5 days by alamar blue assay. The conditions noted are these: 120 h. Format: functional. Background: Alamar Blue is a resazurin reagent that responds to reducing activity.
Assay [3] in a line: Inhibition of Mycobacterium tuberculosis H37Rv shikimate kinase using shikimic acid as substrate preincubated for 15 mins followed by substrate addition in presence of ATP by LC/MS analysis.
In assay [4] the test system is Mycobacterium tuberculosis. Kind of assay: Antimycobacterial activity against Mycobacterium tuberculosis H37Rv. It is filed as functional.
Assay [5] has as its system Mycobacterium tuberculosis. Description: Antimycobacterial activity against Mycobacterium tuberculosis H37Rv at 100 ug/ml by alamar blue assay relative to control. It is filed as functional.
Assay [6] concerns Mycobacterium tuberculosis. Description: Antimycobacterial activity against Mycobacterium tuberculosis H37Rv at 250 ug/ml measured after 4 weeks by Lowensteine-Jensen method relative to control. It is filed as functional. The settings on record: 672 h.
Assay [7] relates to Mycobacterium tuberculosis. Description: Antimycobacterial activity against Mycobacterium tuberculosis H37Rv by alamar blue assay. Format: functional.
Assay [8] relates to Mycobacterium tuberculosis. Kind of assay: Antimycobacterial activity against non-replicating Mycobacterium tuberculosis H37Rv at 1.6 ug/ml relative to control. Format: functional.
Assay [9] deals with Mycobacterium tuberculosis. Kind of assay: Antimycobacterial activity against Mycobacterium tuberculosis Erdman. Format: functional.
In assay [10] the test system is Mycolicibacterium smegmatis. Kind of assay: Antimycobacterial activity against Mycobacterium smegmatis str. MC2 155. It is filed as functional.
Assay [11] relates to Mycobacterium tuberculosis. Kind of assay: Antimycobacterial activity against replicating Mycobacterium tuberculosis H37Rv at 8 ug/ml relative to control. Format: functional.
For assay [12], the system named is Mycobacterium tuberculosis. Kind of assay: Antitubercular activity against dormant stage of Mycobacterium tuberculosis H37Ra. Format: functional.

`Clc1ccc2nc(Cl)c(CN(c3ccccc3)c3nnc(-c4ccncc4)o3)cc2c1`: the MIC in [1] lay within 60 to 200 µM (≈ 26.9 to 89.7 µg/mL).

For `Cn1c(-c2cccc(Cl)c2F)nc2cc(-c3nc(-c4ccc(Cl)cc4)no3)ccc21`, the MIC in assay [2] stood at 1.6 µg/mL (≈ 3.64 µM).

In the case of `Clc1nc2ccccc2cc1CN(c1ccccc1)c1nnc(-c2ccncc2)o1`, the MIC in assay [1] is 60 to 200 µM (≈ 24.8 to 82.8 µg/mL).

Consider `O=C(/C=C/c1ccccc1)Nc1nnc(C2CCCc3ccccc32)o1` (stereo not given), for which, in assay [3], the pIC50 is 5.42. Besides, the MIC in [4] was under 1 µg/mL.

Consider `Cc1ccc2c(c1)cc(-c1nnc(-c3ccncc3)o1)c1nnnn12`, for which the inhibition at 100 µg/mL in assay [5] is over 90%.

In turn, `Cn1c(-c2cccc(Cl)c2Cl)nc2cc(-c3nc(-c4ccccc4Cl)no3)ccc21` gave an MIC in assay [2] of 1.6 µg/mL (≈ 3.51 µM).

In [6], `Cc1nn(-c2ccccc2)c(Oc2cccc(C(F)(F)F)c2)c1-c1nnc(-c2ccc(Br)cc2)o1` had an inhibition at 250 µg/mL of over 90%.

`Cc1ccc2nc(Cl)c(CN(c3ccccc3)c3nnc(-c4cccnc4)o3)cc2c1` returned an MIC in assay [1] of 60 to 200 µM (≈ 25.7 to 85.6 µg/mL).

In the case of `Clc1ccc(-c2nnc(/N=C/c3ccco3)o2)cc1`, in assay [7], the minimum inhibitory concentration (MIC) was 3.12 µg/mL (≈ 11.4 µM).

As for `COc1ccc(-c2nnc(-c3cc4cc(C)ccc4n4nnnc34)o2)cc1`, in [5], the inhibition at 100 µg/mL is over 90%.

`Clc1ccc2nc(Cl)c(CN(c3ccccc3)c3nnc(-c4cccnc4)o3)cc2c1`: the MIC in assay [1] was 60 to 200 µM (≈ 26.9 to 89.7 µg/mL).

Take `Cc1nn(-c2ccccc2)c(Oc2ccc(F)cc2)c1-c1nnc(-c2ccc(Br)cc2)o1`: the inhibition at 250 µg/mL in assay [6] was over 90%.

For the molecule `Cn1c(-c2cccc(Cl)c2Cl)nc2cc(-c3nc(-c4ccc(Cl)cc4)no3)ccc21`, 1.6 µg/mL (≈ 3.51 µM) was the least that counted as inhibitory in [2] (MIC).

For `CO[C@H]1O[C@H](Cc2nnc(C)o2)[C@@H](OCc2ccccc2)[C@H](OCc2ccccc2)[C@H]1OCc1ccccc1`, the MIC in assay [4] stood at 60 µM.

For the molecule `O=C(Nc1nnc(-c2ccccc2Cl)o1)c1cccc(Oc2ccccc2)c1`, the pIC50 in assay [3] is 5.46. This molecule also displayed an MIC in assay [4] of under 1 µg/mL.

As to `Cc1ccc(-c2nnc(-c3c(C)nn(-c4ccccc4)c3Oc3ccc(F)cc3)o2)cc1`, the inhibition at 250 µg/mL in [6] was over 90%.

For `Cn1c(-c2cccc(Cl)c2F)nc2cc(-c3nc(Cc4cccc(Cl)c4)no3)ccc21`, the lowest concentration to inhibit growth in [2] (MIC) was 1.6 µg/mL (≈ 3.53 µM).

In turn, `O=C(Nc1nnc(-c2ccc(F)cc2)o1)c1ccc(Cl)cc1` showed an inhibition at 1.6 µg/mL in assay [8] of over 90%. Moreover, the MIC in assay [9] was 1.6 µg/mL (≈ 5.04 µM); in assay [10], 0.4 µg/mL (≈ 1.26 µM). The molecule also had an inhibition at 8 µg/mL in assay [11] of over 90%.

Molecule `CC1(C)Cc2c(C#CCO)c(NC(=O)C(C)(C)C)cc(-c3nnc(-c4ccc(C(F)(F)F)cc4)o3)c2O1` yielded an IC90 in assay [12] of 5.7 µM.

`Cc1ccc(-c2nnc(-c3c(C)nn(-c4ccccc4)c3Oc3cccc(F)c3)o2)cc1` displayed an inhibition at 250 µg/mL in [6] of over 90%.

The term MIC denotes the smallest concentration in the dilution series that meets the test's criterion for growth inhibition. Lower therefore signals inhibition by little substance. Usually pIC50 stands for the IC50 on a negative log10 scale, so that one unit is a factor of ten. Broadly, the inhibition is the percentage by which the read-out fell short of the control. High values mean a response far below the control, low ones a response near the control. In general, IC90 refers to the point of the concentration-response curve where the effect stands at 90%. A higher IC90 goes with weaker potency.
